Measurements taken from US9982017B2, “Synthetic apelin mimetics for the treatment of heart failure” (priority 2012, dated 2018).
Where a SMILES comes first, the peptide text is derived from it. Bridges are numbered along the chain shown (N, C = ends). [ ]: non-standard residue; d: D form. The star is where a group is joined. pGlu = O=C1CC[C@@H](C(=O)O)N1; NHPhenethyl = c1ccc(CCN*)cc1; Nle = CCCC[C@H](N)C(=O)O; Orn = NCCC[C@H](N)C(=O)O; Dab = NCC[C@H](N)C(=O)O; Aib = CC(C)(N)C(=O)O

Assay: in vitro
Details: rat, not told, Surrogate activity-based Plasma stability t½

Compound | half-life [min]
CCCC[C@@H]1NC(=O)[C@@H]2CCCN2C(=O)CNC(=O)[C@H](Cc2ccccc2)NC(=O)[C@H](Cc2c[nH]cn2)NC(=O)[C@@H](NC(=O)[C@H](CC(C)C)NC(=O)[C@H](CCCNC(=N)N)NC(=O)[C@@H]2CCCN2C(=O)[C@H](CCCNC(=N)N)NC(=O)[C@@H]2CCC(=O)N2)CCCCNC(=O)C[C@@H](C(=O)NCCc2ccccc2)NC1=O [Example 1, pE-R-P-R-L-K-H-F-G-P-Nle-D-Phenethylamine] ([pGlu]RPRLKHFGP[Nle]D-NHPhenethyl; lactam 6-12) | 30.7
CCCC[C@@H]1NC(=O)[C@@H]2CCCN2C(=O)CNC(=O)[C@H](Cc2ccccc2)NC(=O)[C@H](Cc2c[nH]cn2)NC(=O)[C@@H](NC(=O)[C@H](CC(C)C)NC(=O)[C@H](CCCNC(=N)N)NC(=O)[C@@H]2CCCN2C(=O)[C@H](CCCNC(=N)N)NC(=O)[C@@H]2CCC(=O)N2)CCCCNC(=O)CC[C@@H](C(=O)NCCc2ccccc2)NC1=O [Example 2, pE-R-P-R-L-K-H-F-G-P-Nle-E-Phenethylamine] ([pGlu]RPRLKHFGP[Nle]E-NHPhenethyl; lactam 6-12) | 27.1
CCCC[C@@H]1NC(=O)[C@@H]2CCCN2C(=O)CNC(=O)[C@H](Cc2ccccc2)NC(=O)[C@H](Cc2c[nH]cn2)NC(=O)[C@@H](NC(=O)[C@H](CC(C)C)NC(=O)[C@H](CCCNC(=N)N)NC(=O)[C@@H]2CCCN2C(=O)[C@H](CCCNC(=N)N)NC(=O)[C@@H]2CCC(=O)N2)CCCNC(=O)C[C@@H](C(=O)NCCc2ccccc2)NC1=O [Example 3, pE-R-P-R-L-Orn-H-F-G-P-Nle-D-Phenethylamine] ([pGlu]RPRL[Orn]HFGP[Nle]D-NHPhenethyl; lactam 6-12) | 98
CCCC[C@@H]1NC(=O)[C@@H]2CCCN2C(=O)CNC(=O)[C@H](Cc2ccccc2)NC(=O)[C@H](Cc2c[nH]cn2)NC(=O)[C@@H](NC(=O)[C@H](CC(C)C)NC(=O)[C@H](CCCNC(=N)N)NC(=O)[C@@H]2CCCN2C(=O)[C@H](CCCNC(=N)N)NC(=O)[C@@H]2CCC(=O)N2)CCNC(=O)C[C@@H](C(=O)NCCc2ccccc2)NC1=O [Example 4, pE-R-P-R-L-Dab-H-F-G-P-Nle-D-Phenethylamine] ([pGlu]RPRL[Dab]HFGP[Nle]D-NHPhenethyl; lactam 6-12) | 50
CCCC[C@@H]1NC(=O)[C@@H]2CCCN2C(=O)CNC(=O)[C@H](CCCCN)NC(=O)[C@H](Cc2ccccc2)NC(=O)[C@@H](NC(=O)[C@H](CC(C)C)NC(=O)[C@H](CCCNC(=N)N)NC(=O)[C@@H]2CCCN2C(=O)[C@H](CCCNC(=N)N)NC(=O)[C@@H]2CCC(=O)N2)CCCCNC(=O)[C@H](Cc2ccccc2)NC1=O [Example 5, pE-R-P-R-L-K-F-K-G-P-Nle-F] ([pGlu]RPRLKFKGP[Nle]F; lactam 6-C) | 126
CCCC[C@@H]1NC(=O)[C@@H]2CCCN2C(=O)CNC(=O)[C@H](CCCCN)NC(=O)[C@H](Cc2ccccc2)NC(=O)[C@@H](NC(=O)[C@H](CC(C)C)NC(=O)[C@H](CCCNC(=N)N)NC(=O)[C@@H]2CCCN2C(=O)[C@H](CCCNC(=N)N)NC(=O)[C@@H]2CCC(=O)N2)CCCCNC(=O)[C@@H](Cc2ccccc2)NC1=O [Example 6, pE-R-P-R-L-K-F-K-G-P-Nle-f] ([pGlu]RPRLKFKGP[Nle][dF]; lactam 6-C) | 117
CCCC[C@@H]1NC(=O)[C@@H]2CCCN2C(=O)CNC(=O)[C@H](CCCCN)NC(=O)C(C)(C)NC(=O)[C@@H](NC(=O)[C@H](CC(C)C)NC(=O)[C@H](CCCNC(=N)N)NC(=O)[C@@H]2CCCN2C(=O)[C@H](CCCNC(=N)N)NC(=O)[C@@H]2CCC(=O)N2)CSSC[C@@H](C(=O)N[C@@H](Cc2ccccc2)C(=O)O)NC1=O [Example 9, pE-R-P-R-L-C-Aib-K-G-P-Nle-C-F-OH] ([pGlu]RPRLC[Aib]KGP[Nle]CF-OH; disulfide 6-12) | > 1000
